# Test system: Micrococcus luteus
# Assay: Antimicrobial activity against Micrococcus luteus MTCC 2470 incubated for 24 hrs by well diffusion assay
# Format: functional
# Conditions: MTCC 2470, 24 h
row,SMILES,MIC
1,CCOC(=O)C1=C(C(=O)OCC)[C@@H](c2cc(O)ccc2O)Nc2c1c1ccccc1oc2=O,> 100 µg/mL
2,CCOC(=O)C1=C(C(=O)OCC)[C@@H](c2cc(OC)ccc2O)Nc2c1c1ccccc1oc2=O,> 100 µg/mL
3,CCOC(=O)C1=C(C(=O)OCC)[C@@H](c2ccc(O)c(Cl)c2)Nc2c1c1ccccc1oc2=O,> 100 µg/mL
4,O=c1oc2ccccc2c2c1N[C@H](c1ccc(F)cc1)[C@H]1CCCO[C@@H]21,> 100 µg/mL
5,CCOc1ccc([C@H]2Nc3c(c4ccccc4oc3=O)[C@@H]3OCCC[C@H]23)cc1,> 100 µg/mL
6,O=c1oc2ccccc2c2c1N[C@H](c1ccc(Cl)cc1)C[C@H]2c1ccc2ccccc2c1,> 100 µg/mL
7,O=c1oc2ccccc2c2c1N[C@H](c1ccccc1)[C@H]1CCCO[C@@H]21,> 100 µg/mL
8,CC(C)OC(=O)N1c2c(c(=O)oc3ccccc23)N[C@H](c2ccc(O)c(Cl)c2)N1C(=O)OC(C)C,> 100 µg/mL
9,CC(C)OC(=O)N1c2c(c(=O)oc3ccccc23)N[C@H](c2ccc([N+](=O)[O-])cc2)N1C(=O)OC(C)C,> 100 µg/mL

# Test system: Staphylococcus aureus
# Assay: Antimicrobial activity against Staphylococcus aureus MTCC 96 incubated for 24 hrs by well diffusion assay
# Format: functional
# Conditions: MTCC 96, 24 h
row,SMILES,MIC
1,CCOC(=O)C1=C(C(=O)OCC)[C@@H](c2cc(O)ccc2O)Nc2c1c1ccccc1oc2=O,> 100 µg/mL
2,CCOC(=O)C1=C(C(=O)OCC)[C@@H](c2cc(OC)ccc2O)Nc2c1c1ccccc1oc2=O,> 100 µg/mL
3,CCOC(=O)C1=C(C(=O)OCC)[C@@H](c2ccc(O)c(Cl)c2)Nc2c1c1ccccc1oc2=O,> 100 µg/mL
4,O=c1oc2ccccc2c2c1N[C@H](c1ccc(F)cc1)[C@H]1CCCO[C@@H]21,> 100 µg/mL
5,CCOc1ccc([C@H]2Nc3c(c4ccccc4oc3=O)[C@@H]3OCCC[C@H]23)cc1,> 100 µg/mL
6,O=c1oc2ccccc2c2c1N[C@H](c1ccc(Cl)cc1)C[C@H]2c1ccc2ccccc2c1,> 100 µg/mL
7,O=c1oc2ccccc2c2c1N[C@H](c1ccccc1)[C@H]1CCCO[C@@H]21,> 100 µg/mL
8,CC(C)OC(=O)N1c2c(c(=O)oc3ccccc23)N[C@H](c2ccc(O)c(Cl)c2)N1C(=O)OC(C)C,> 100 µg/mL
9,CC(C)OC(=O)N1c2c(c(=O)oc3ccccc23)N[C@H](c2ccc([N+](=O)[O-])cc2)N1C(=O)OC(C)C,> 100 µg/mL

# Test system: Staphylococcus aureus
# Assay: Antimicrobial activity against Staphylococcus aureus MLS-16 […] incubated for 24 hrs by well diffusion assay
# Format: functional
# Conditions: not given
row,SMILES,MIC
1,CCOC(=O)C1=C(C(=O)OCC)[C@@H](c2cc(O)ccc2O)Nc2c1c1ccccc1oc2=O,> 100 µg/mL
2,CCOC(=O)C1=C(C(=O)OCC)[C@@H](c2cc(OC)ccc2O)Nc2c1c1ccccc1oc2=O,> 100 µg/mL
3,CCOC(=O)C1=C(C(=O)OCC)[C@@H](c2ccc(O)c(Cl)c2)Nc2c1c1ccccc1oc2=O,> 100 µg/mL
4,O=c1oc2ccccc2c2c1N[C@H](c1ccc(F)cc1)[C@H]1CCCO[C@@H]21,> 100 µg/mL
5,CCOc1ccc([C@H]2Nc3c(c4ccccc4oc3=O)[C@@H]3OCCC[C@H]23)cc1,> 100 µg/mL
6,O=c1oc2ccccc2c2c1N[C@H](c1ccc(Cl)cc1)C[C@H]2c1ccc2ccccc2c1,> 100 µg/mL
7,O=c1oc2ccccc2c2c1N[C@H](c1ccccc1)[C@H]1CCCO[C@@H]21,> 100 µg/mL
8,CC(C)OC(=O)N1c2c(c(=O)oc3ccccc23)N[C@H](c2ccc(O)c(Cl)c2)N1C(=O)OC(C)C,> 100 µg/mL
9,CC(C)OC(=O)N1c2c(c(=O)oc3ccccc23)N[C@H](c2ccc([N+](=O)[O-])cc2)N1C(=O)OC(C)C,> 100 µg/mL

# Test system: Bacillus subtilis
# Assay: Antimicrobial activity against Bacillus subtilis MTCC 121 incubated for 24 hrs by well diffusion assay
# Format: functional
# Conditions: MTCC 121, 24 h
row,SMILES,MIC
1,CCOC(=O)C1=C(C(=O)OCC)[C@@H](c2cc(O)ccc2O)Nc2c1c1ccccc1oc2=O,> 100 µg/mL
2,CCOC(=O)C1=C(C(=O)OCC)[C@@H](c2cc(OC)ccc2O)Nc2c1c1ccccc1oc2=O,> 100 µg/mL
3,CCOC(=O)C1=C(C(=O)OCC)[C@@H](c2ccc(O)c(Cl)c2)Nc2c1c1ccccc1oc2=O,> 100 µg/mL
4,O=c1oc2ccccc2c2c1N[C@H](c1ccc(F)cc1)[C@H]1CCCO[C@@H]21,> 100 µg/mL
5,CCOc1ccc([C@H]2Nc3c(c4ccccc4oc3=O)[C@@H]3OCCC[C@H]23)cc1,> 100 µg/mL
6,O=c1oc2ccccc2c2c1N[C@H](c1ccc(Cl)cc1)C[C@H]2c1ccc2ccccc2c1,> 100 µg/mL
7,O=c1oc2ccccc2c2c1N[C@H](c1ccccc1)[C@H]1CCCO[C@@H]21,> 100 µg/mL
8,CC(C)OC(=O)N1c2c(c(=O)oc3ccccc23)N[C@H](c2ccc(O)c(Cl)c2)N1C(=O)OC(C)C,> 100 µg/mL
9,CC(C)OC(=O)N1c2c(c(=O)oc3ccccc23)N[C@H](c2ccc([N+](=O)[O-])cc2)N1C(=O)OC(C)C,> 100 µg/mL

# Test system: Escherichia coli
# Assay: Antimicrobial activity against Escherichia coli MTCC 739 incubated for 24 hrs by well diffusion assay
# Format: functional
# Conditions: MTCC 739, 24 h
row,SMILES,MIC
1,CCOC(=O)C1=C(C(=O)OCC)[C@@H](c2cc(O)ccc2O)Nc2c1c1ccccc1oc2=O,> 100 µg/mL
2,CCOC(=O)C1=C(C(=O)OCC)[C@@H](c2cc(OC)ccc2O)Nc2c1c1ccccc1oc2=O,> 100 µg/mL
3,CCOC(=O)C1=C(C(=O)OCC)[C@@H](c2ccc(O)c(Cl)c2)Nc2c1c1ccccc1oc2=O,> 100 µg/mL
4,O=c1oc2ccccc2c2c1N[C@H](c1ccc(F)cc1)[C@H]1CCCO[C@@H]21,> 100 µg/mL
5,CCOc1ccc([C@H]2Nc3c(c4ccccc4oc3=O)[C@@H]3OCCC[C@H]23)cc1,> 100 µg/mL
6,O=c1oc2ccccc2c2c1N[C@H](c1ccc(Cl)cc1)C[C@H]2c1ccc2ccccc2c1,> 100 µg/mL
7,O=c1oc2ccccc2c2c1N[C@H](c1ccccc1)[C@H]1CCCO[C@@H]21,> 100 µg/mL
8,CC(C)OC(=O)N1c2c(c(=O)oc3ccccc23)N[C@H](c2ccc(O)c(Cl)c2)N1C(=O)OC(C)C,> 100 µg/mL
9,CC(C)OC(=O)N1c2c(c(=O)oc3ccccc23)N[C@H](c2ccc([N+](=O)[O-])cc2)N1C(=O)OC(C)C,> 100 µg/mL

# Test system: Pseudomonas aeruginosa
# Assay: Antimicrobial activity against Pseudomonas aeruginosa MTCC 2453 incubated for 24 hrs by well diffusion assay
# Format: functional
# Conditions: MTCC 2453, 24 h
row,SMILES,MIC
1,CCOC(=O)C1=C(C(=O)OCC)[C@@H](c2cc(O)ccc2O)Nc2c1c1ccccc1oc2=O,> 100 µg/mL
2,CCOC(=O)C1=C(C(=O)OCC)[C@@H](c2cc(OC)ccc2O)Nc2c1c1ccccc1oc2=O,> 100 µg/mL
3,CCOC(=O)C1=C(C(=O)OCC)[C@@H](c2ccc(O)c(Cl)c2)Nc2c1c1ccccc1oc2=O,> 100 µg/mL
4,O=c1oc2ccccc2c2c1N[C@H](c1ccc(F)cc1)[C@H]1CCCO[C@@H]21,> 100 µg/mL
5,CCOc1ccc([C@H]2Nc3c(c4ccccc4oc3=O)[C@@H]3OCCC[C@H]23)cc1,> 100 µg/mL
6,O=c1oc2ccccc2c2c1N[C@H](c1ccc(Cl)cc1)C[C@H]2c1ccc2ccccc2c1,> 100 µg/mL
7,O=c1oc2ccccc2c2c1N[C@H](c1ccccc1)[C@H]1CCCO[C@@H]21,> 100 µg/mL
8,CC(C)OC(=O)N1c2c(c(=O)oc3ccccc23)N[C@H](c2ccc(O)c(Cl)c2)N1C(=O)OC(C)C,> 100 µg/mL
9,CC(C)OC(=O)N1c2c(c(=O)oc3ccccc23)N[C@H](c2ccc([N+](=O)[O-])cc2)N1C(=O)OC(C)C,> 100 µg/mL

# Test system: Raoultella planticola
# Assay: Antimicrobial activity against Klebsiella planticola MTCC 530 incubated for 24 hrs by well diffusion assay
# Format: functional
# Conditions: MTCC 530, 24 h
row,SMILES,MIC
1,CCOC(=O)C1=C(C(=O)OCC)[C@@H](c2cc(O)ccc2O)Nc2c1c1ccccc1oc2=O,> 100 µg/mL
2,CCOC(=O)C1=C(C(=O)OCC)[C@@H](c2cc(OC)ccc2O)Nc2c1c1ccccc1oc2=O,> 100 µg/mL
3,CCOC(=O)C1=C(C(=O)OCC)[C@@H](c2ccc(O)c(Cl)c2)Nc2c1c1ccccc1oc2=O,> 100 µg/mL
4,O=c1oc2ccccc2c2c1N[C@H](c1ccc(F)cc1)[C@H]1CCCO[C@@H]21,> 100 µg/mL
5,CCOc1ccc([C@H]2Nc3c(c4ccccc4oc3=O)[C@@H]3OCCC[C@H]23)cc1,> 100 µg/mL
6,O=c1oc2ccccc2c2c1N[C@H](c1ccc(Cl)cc1)C[C@H]2c1ccc2ccccc2c1,> 100 µg/mL
7,O=c1oc2ccccc2c2c1N[C@H](c1ccccc1)[C@H]1CCCO[C@@H]21,> 100 µg/mL
8,CC(C)OC(=O)N1c2c(c(=O)oc3ccccc23)N[C@H](c2ccc(O)c(Cl)c2)N1C(=O)OC(C)C,> 100 µg/mL
9,CC(C)OC(=O)N1c2c(c(=O)oc3ccccc23)N[C@H](c2ccc([N+](=O)[O-])cc2)N1C(=O)OC(C)C,> 100 µg/mL

# Test system: Candida albicans
# Assay: Antimicrobial activity against Candida albicans MTCC 3017 incubated for 24 hrs by well diffusion assay
# Format: functional
# Conditions: MTCC 3017, 24 h
row,SMILES,MIC
1,CCOC(=O)C1=C(C(=O)OCC)[C@@H](c2cc(O)ccc2O)Nc2c1c1ccccc1oc2=O,> 100 µg/mL
2,CCOC(=O)C1=C(C(=O)OCC)[C@@H](c2cc(OC)ccc2O)Nc2c1c1ccccc1oc2=O,> 100 µg/mL
3,CCOC(=O)C1=C(C(=O)OCC)[C@@H](c2ccc(O)c(Cl)c2)Nc2c1c1ccccc1oc2=O,> 100 µg/mL
4,O=c1oc2ccccc2c2c1N[C@H](c1ccc(F)cc1)[C@H]1CCCO[C@@H]21,> 100 µg/mL
5,CCOc1ccc([C@H]2Nc3c(c4ccccc4oc3=O)[C@@H]3OCCC[C@H]23)cc1,> 100 µg/mL
6,O=c1oc2ccccc2c2c1N[C@H](c1ccc(Cl)cc1)C[C@H]2c1ccc2ccccc2c1,> 100 µg/mL
7,O=c1oc2ccccc2c2c1N[C@H](c1ccccc1)[C@H]1CCCO[C@@H]21,> 100 µg/mL
8,CC(C)OC(=O)N1c2c(c(=O)oc3ccccc23)N[C@H](c2ccc(O)c(Cl)c2)N1C(=O)OC(C)C,> 100 µg/mL
9,CC(C)OC(=O)N1c2c(c(=O)oc3ccccc23)N[C@H](c2ccc([N+](=O)[O-])cc2)N1C(=O)OC(C)C,> 100 µg/mL

# Test system: not listed separately
# Assay: Antioxidant activity assessed as DPPH radical scavenging activity at 0.5 mM incubated for 40 mins in dark condition
# Format: functional
# Conditions: not given
row,SMILES,Activity
1,CCOC(=O)C1=C(C(=O)OCC)[C@@H](c2cc(O)ccc2O)Nc2c1c1ccccc1oc2=O,2.43%
2,CCOC(=O)C1=C(C(=O)OCC)[C@@H](c2cc(OC)ccc2O)Nc2c1c1ccccc1oc2=O,9.58%
3,CCOC(=O)C1=C(C(=O)OCC)[C@@H](c2ccc(O)c(Cl)c2)Nc2c1c1ccccc1oc2=O,4.84%
4,CC(C)OC(=O)N1c2c(c(=O)oc3ccccc23)N[C@H](c2ccc(O)c(Cl)c2)N1C(=O)OC(C)C,10.8%
5,CC(C)OC(=O)N1c2c(c(=O)oc3ccccc23)N[C@H](c2ccc([N+](=O)[O-])cc2)N1C(=O)OC(C)C,3.27%

# Test system: not listed separately
# Assay: Antioxidant activity assessed as DPPH radical scavenging activity at 1 mM incubated for 40 mins in dark condition
# Format: functional
# Conditions: not given
row,SMILES,Activity
1,CCOC(=O)C1=C(C(=O)OCC)[C@@H](c2cc(O)ccc2O)Nc2c1c1ccccc1oc2=O,3.88%
2,CCOC(=O)C1=C(C(=O)OCC)[C@@H](c2cc(OC)ccc2O)Nc2c1c1ccccc1oc2=O,20.1%
3,CCOC(=O)C1=C(C(=O)OCC)[C@@H](c2ccc(O)c(Cl)c2)Nc2c1c1ccccc1oc2=O,5.79%
4,CC(C)OC(=O)N1c2c(c(=O)oc3ccccc23)N[C@H](c2ccc(O)c(Cl)c2)N1C(=O)OC(C)C,21%
5,CC(C)OC(=O)N1c2c(c(=O)oc3ccccc23)N[C@H](c2ccc([N+](=O)[O-])cc2)N1C(=O)OC(C)C,7.06%

# Test system: not listed separately
# Assay: Antioxidant activity assessed as DPPH radical scavenging activity at 2 mM incubated for 40 mins in dark condition
# Format: functional
# Conditions: not given
row,SMILES,Activity
1,CCOC(=O)C1=C(C(=O)OCC)[C@@H](c2cc(O)ccc2O)Nc2c1c1ccccc1oc2=O,7.42%
2,CCOC(=O)C1=C(C(=O)OCC)[C@@H](c2cc(OC)ccc2O)Nc2c1c1ccccc1oc2=O,32.1%
3,CCOC(=O)C1=C(C(=O)OCC)[C@@H](c2ccc(O)c(Cl)c2)Nc2c1c1ccccc1oc2=O,11%
4,CC(C)OC(=O)N1c2c(c(=O)oc3ccccc23)N[C@H](c2ccc(O)c(Cl)c2)N1C(=O)OC(C)C,31.1%
5,CC(C)OC(=O)N1c2c(c(=O)oc3ccccc23)N[C@H](c2ccc([N+](=O)[O-])cc2)N1C(=O)OC(C)C,14.6%
